# What was measured:
# [1] = EIS sensor, empty liposomes (specificity control); format: biochemical; settings: empty liposomes without receptor
# Experimental: PBS solution was prepared by immersing one tablet of PBS in 200 ml of milli-Q water (according to manufacturers instructions) and filtered using 0.2-μm syringe filter. The pH of the prepared buffer solution was measured with a pH meter. OrX liposomes or OrX/Orco liposomes were diluted 100 fold in PBS buffer solution (pH=7.4) and the COOH-activated electrodes were incubated in that buffer solution at room temperature for one hour. Then, the electrodes were washed extensively with PBS buffer solution to wash out any unbound liposomes.
# PBS (pH=7.4) was used as an electrolyte to conduct electrochemical measurements. PBS buffer was degassed for about 30 minutes prior to electrochemical measurements. Odorant solutions of concentration ranging from 1 aM to 1 μM were prepared by sequential dilution in PBS solution containing 1% DMSO. OR immobilized electrodes were incubated in relevant odorant solution for ˜30 minutes each and washed gently with PBS before EIS measurements.
# EIS measurements were done in a 3 electrode cell containing Ag/AgCl (3 M NaCl, 0.209 V vs. SHE) reference electrode, coiled platinum wire as a counter electrode and the gold disk as a working electrode at a fixed voltage of −0.7 using PalmSens potentiostat. Degassed PBS was used as an electrolyte.
# EIS measurements were performed on gold electrodes functionalised with OrX liposomes (either Or10a or Or22a), OrX/Orco liposomes, or empty liposomes prior to and after target ligand or control ligand incubation with increasing concentrations (1 aM to 100 μM). Dose response curves were obtained by defining sensor response as −(ΔRp/R^op) versus log[C(Ligand)]. FIG. 4a presents the EIS response in terms of Nyquist plot for the Or10a liposome functionalized sensors when exposed to a solution containing one of the known target ligands of Or10a, methyl salicylate, at various concentrations. […] The dose response curve (FIG. 4b) was obtained by plotting the change in polarization resistance −(ΔRp/R^op) versus log[conc(Ligand)], as the sensor response. […]
# Orco = molecular target: T1, Orco (Drosophila melanogaster, UniProt Q9VNB5); assay: GFET sensor, Orco liposomes (control); format: biochemical; settings: Orco only liposomes
# T1 construct: his-tag; made in house; host or cells: baculovirus-infected Sf9 cells
# T1 sequence (Q9VNB5 1-486): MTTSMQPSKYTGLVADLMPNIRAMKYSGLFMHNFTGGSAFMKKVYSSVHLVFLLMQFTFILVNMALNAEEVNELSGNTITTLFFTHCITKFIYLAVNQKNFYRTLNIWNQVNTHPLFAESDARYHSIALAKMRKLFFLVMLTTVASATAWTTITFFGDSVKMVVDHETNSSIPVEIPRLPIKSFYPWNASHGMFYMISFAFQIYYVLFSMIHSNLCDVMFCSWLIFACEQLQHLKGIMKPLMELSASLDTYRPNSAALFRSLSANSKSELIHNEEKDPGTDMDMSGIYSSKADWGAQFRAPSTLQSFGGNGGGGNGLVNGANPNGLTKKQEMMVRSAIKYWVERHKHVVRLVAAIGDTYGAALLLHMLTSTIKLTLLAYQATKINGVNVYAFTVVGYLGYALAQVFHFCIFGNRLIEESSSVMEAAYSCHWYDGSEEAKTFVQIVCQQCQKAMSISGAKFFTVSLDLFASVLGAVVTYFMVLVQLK
# Experimental: The OR liposomes were functionalised onto the graphene surface via a non-covalent route using PBASE as the molecular linker as shown in FIG. 13. The OR liposomes were diluted at 1:10 ratio with 1×PBS (pH7.4). The cleaned GFETs were immersed in 1 mM PBASE solution in methanol for 1 hour. The devices were washed three times in methanol and subsequently washed three times in 1×PBS to remove the excess PBASE and residual methanol in the channel respectively. The OR liposomes were diluted 1:10 with 1×PBS (pH 7.4) and 100 μL of the OR dilution was placed in the graphene channel and incubated at room temperature for one hour in a closed petri dish. After OR liposome functionalization, the devices were washed in 1×PBS for 10 s before measurements.
# The OR liposome immobilised GFET device with a PDMS well mounted on it was placed onto the probe station and the source and drain connections were made by micromanipulators. 100 μl of PBS containing 1% dimethyl sulfoxide (DMSO) was added to the well and the Ag/AgCl standard electrode was placed into the buffer. The stock solution of ligands at 100 mM concentrations were prepared by dissolving them in DMSO as they are not stable in aqueous buffer. The stock solution was stored at 4° C. The ligand solution for sensing was prepared by diluting the stock solution in 1×PBS buffer containing 1% DMSO to set concentrations from 10 fM to 100 pM. […]
Compound,sensor response to ligand [1],sensor response to target ligand (Orco)
CCCCCC(=O)OC [methyl hexanoate],negligible response,lack of response
COC(=O)c1ccccc1O [methyl salicylate],negligible response,lack of response
